Columns and labels:
[1] = tested on: human Factor XI mRNA; test: Dose-dependent inhibition in HepG2 cells, electroporation (Example 5); format: cell-based; settings: approx. 16 h, relative to untreated control cells
Procedure, shortened: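 20,000 cells per well electroporated with 625–20,000 nM antisense oligonucleotide; RNA isolated after ~16 h. Factor XI mRNA by quantitative real-time PCR (primer probe set RTS 2966), normalised to RIBOGREEN total RNA; percent inhibition relative to untreated control cells.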

[2] = Tolerability in Sprague-Dawley rats: kidney function (Example 19); format: in vivo; settings: Sprague Dawley rats; for urine protein/creatinine ratio, After: after 50 mg/kg s.c. twice per week for 6 weeks; for urine protein/creatinine ratio, Before: before antisense oligonucleotide treatment
Excerpt: (§1) Urine samples were taken before the start of treatment.

[3] = tested on: human Factor XI mRNA; test: Dose-dependent inhibition in cyno primary hepatocytes, electroporation (Example 6); format: cell-based, cynomolgus monkey; settings: approx. 16 h
Procedure, shortened: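 Cyno primary hepatocytes electroporated with antisense oligonucleotide at 0.74, 2.2, 6.7, 20, 60 and 180 nM and treated ~16 h. Factor XI mRNA measured by qRT-PCR (primer probe set RTS 2966), normalised to total RNA by RIBOGREEN; percent inhibition relative to untreated cells.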

[4] = tested on: human Factor XI mRNA; test: Dose-dependent inhibition in HepG2 cells, lipofectin (Example 5); format: cell-based; settings: 16 hours
Procedure, shortened: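 HepG2 cells (10,000/well) were lipofectin-transfected with antisense oligonucleotide at 2.34–75 nM for about 16 h. Factor XI mRNA was measured by qRT-PCR (primer-probe RTS 2966), normalised to RIBOGREEN total RNA, and expressed as percent inhibition versus untreated cells.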

[5] = tested on: human Factor XI mRNA; test: Dose-dependent inhibition in HepB3 cells, electroporation (Example 7); format: cell-based; settings: approx. 16 h
Procedure, shortened: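 HepB3 cells electroporated with gapmer at 41.15, 123.457, 370.37, 1111.11, 3333.33 and 10,000 nM; ~16 h treatment. Factor XI mRNA quantified by qRT-PCR (primer probe set RTS 2966), normalized to RIBOGREEN total RNA; percent inhibition versus untreated control cells.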

[6] = Tolerability in Sprague-Dawley rats: body and organ weight (Example 19); format: in vivo; settings: 50 mg/kg s.c. twice per week for 6 weeks, change over weight at start of study
Excerpt: as §1
The body weights are presented in Table 78 and are expressed as a percent change over the weights taken at the start of the study.

[7] = tested on: human Factor XI mRNA; test: Dose-dependent inhibition in HepB3 cells, lipofectin (Example 7); format: cell-based; settings: approx. 16 h
Procedure, shortened: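 Antisense oligonucleotides at 2.3–75 nM were delivered by lipofectin into cells seeded at 4,000/well and left for ~16 h. Factor XI mRNA was quantified by qRT-PCR with primer probe set RTS 2966 and normalised to RIBOGREEN total RNA. Values are percent inhibition versus untreated cells.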

[8] = tested on: human Factor XI mRNA; test: Dose-dependent inhibition in HepG2 cells, lipofectin (Example 4); format: cell-based; settings: 16 hours
Procedure, shortened: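 HepG2 cells at 10,000 per well were lipofectin-transfected with 9.375, 18.75, 37.5 or 75 nM antisense oligonucleotide for about 16 h. Factor XI mRNA was quantified by real-time PCR (primer probe set RTS 2966) and normalised to RIBOGREEN total RNA. Values are percent inhibition versus untreated cells.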

| Substance | percent inhibition of human Factor XI mRNA ([1]; 625 nM) [%] | percent inhibition of human Factor XI mRNA ([1]; 1250 nM) [%] | percent inhibition of human Factor XI mRNA ([1]; 2500 nM) [%] | percent inhibition of human Factor XI mRNA ([1]; 5000 nM) [%] | percent inhibition of human Factor XI mRNA ([1]; 10000 nM) [%] | percent inhibition of human Factor XI mRNA ([1]; 20000 nM) [%] | urine protein/creatinine ratio, After [2] | urine protein/creatinine ratio, Before [2] | percent inhibition of human Factor XI mRNA ([3]; 0.74 nM) [%] | percent inhibition of human Factor XI mRNA ([3]; 2.2 nM) [%] | percent inhibition of human Factor XI mRNA ([3]; 6.7 nM) [%] | percent inhibition of human Factor XI mRNA ([3]; 20 nM) [%] | percent inhibition of human Factor XI mRNA ([3]; 60 nM) [%] | percent inhibition of human Factor XI mRNA ([3]; 180 nM) [%] | percent inhibition of human Factor XI mRNA, relative to untreated control cells ([4]; 2.34 nM) [%] | percent inhibition of human Factor XI mRNA, relative to untreated control cells ([4]; 4.69 nM) [%] | percent inhibition of human Factor XI mRNA, relative to untreated control cells ([4]; 9.375 nM) [%] | percent inhibition of human Factor XI mRNA, relative to untreated control cells ([4]; 18.75 nM) [%] | percent inhibition of human Factor XI mRNA, relative to untreated control cells ([4]; 37.5 nM) [%] | percent inhibition of human Factor XI mRNA, relative to untreated control cells ([4]; 75 nM) [%] | other results |
| --- | --- | --- | --- | --- | --- | --- | --- | --- | --- | --- | --- | --- | --- | --- | --- | --- | --- | --- | --- | --- | --- |
| 416858 (antisense ACGGCATTGGTGCACAGTTT; 5-10-5 gapmer, wing sugar chemistry not given here, further chemistry not given here) [compound 416858] | 65 | 77 | 87 | 89 | 93 | 93 | 4.4 | 0.9 | 2 | 13 | 22 | 44 | 63 | 68 | 11 | 35 | 46 | 61 | 75 | 77 | percent inhibition of human Factor XI mRNA ([5]; 41.15 nM): 23%; percent inhibition of human Factor XI mRNA ([5]; 123.457 nM): 45%; percent inhibition of human Factor XI mRNA ([5]; 370.37 nM): 52%; percent inhibition of human Factor XI mRNA ([5]; 1111.11 nM): 64%; percent inhibition of human Factor XI mRNA ([5]; 3333.33 nM): 87%; percent inhibition of human Factor XI mRNA ([5]; 10000 nM): 92%; Percent change in Body weight [6]: −21%; percent inhibition of human Factor XI mRNA ([7]; 2.3 nM): 17%; percent inhibition of human Factor XI mRNA ([7]; 4.7 nM): 34%; percent inhibition of human Factor XI mRNA ([7]; 9.4 nM): 43%; percent inhibition of human Factor XI mRNA ([7]; 18.75 nM): 57%; percent inhibition of human Factor XI mRNA ([7]; 37.5 nM): 74%; percent inhibition of human Factor XI mRNA ([7]; 75 nM): 62%; percent inhibition of Factor XI mRNA, relative to untreated control cells ([8]; 9.375 nM): 0%; percent inhibition of Factor XI mRNA, relative to untreated control cells ([8]; 18.75 nM): 28%; percent inhibition of Factor XI mRNA, relative to untreated control cells ([8]; 37.5 nM): 54%; percent inhibition of Factor XI mRNA, relative to untreated control cells ([8]; 75 nM): 82% |
| 416864 (antisense GGCAGCGGACGGCATTGGTG; 5-10-5 gapmer, wing sugar chemistry not given here, further chemistry not given here) [compound 416864] | 45 | 74 | 84 | 87 | 92 | 94 | 4.0 | 1.2 | 0 | 1 | 15 | 23 | 47 | 64 | 13 | 34 | 42 | 65 | 68 | 80 | percent inhibition of human Factor XI mRNA ([5]; 41.15 nM): 4%; percent inhibition of human Factor XI mRNA ([5]; 123.457 nM): 3%; percent inhibition of human Factor XI mRNA ([5]; 370.37 nM): 6%; percent inhibition of human Factor XI mRNA ([5]; 1111.11 nM): 35%; percent inhibition of human Factor XI mRNA ([5]; 3333.33 nM): 75%; percent inhibition of human Factor XI mRNA ([5]; 10000 nM): 87%; Percent change in Body weight [6]: −24%; percent inhibition of human Factor XI mRNA ([7]; 2.3 nM): 24%; percent inhibition of human Factor XI mRNA ([7]; 4.7 nM): 37%; percent inhibition of human Factor XI mRNA ([7]; 9.4 nM): 42%; percent inhibition of human Factor XI mRNA ([7]; 18.75 nM): 66%; percent inhibition of human Factor XI mRNA ([7]; 37.5 nM): 76%; percent inhibition of human Factor XI mRNA ([7]; 75 nM): 63%; percent inhibition of Factor XI mRNA, relative to untreated control cells ([8]; 9.375 nM): 18%; percent inhibition of Factor XI mRNA, relative to untreated control cells ([8]; 18.75 nM): 43%; percent inhibition of Factor XI mRNA, relative to untreated control cells ([8]; 37.5 nM): 62%; percent inhibition of Factor XI mRNA, relative to untreated control cells ([8]; 75 nM): 78% |
| 416925 (antisense GGTGCACAGTTTCTGGCAGG; 3-14-3 chimeric gapmer, wing sugar chemistry not given here, further chemistry not given here) [compound 416925] | 64 | 80 | 88 | 91 | 95 | 96 | 4.3 | 1.0 | 0 | 9 | 1 | 48 | 55 | 76 | 24 | 34 | 45 | 56 | 67 | 72 | percent inhibition of human Factor XI mRNA ([5]; 41.15 nM): 27%; percent inhibition of human Factor XI mRNA ([5]; 123.457 nM): 39%; percent inhibition of human Factor XI mRNA ([5]; 370.37 nM): 50%; percent inhibition of human Factor XI mRNA ([5]; 1111.11 nM): 73%; percent inhibition of human Factor XI mRNA ([5]; 3333.33 nM): 88%; percent inhibition of human Factor XI mRNA ([5]; 10000 nM): 96%; Percent change in Body weight [6]: −32%; percent inhibition of human Factor XI mRNA ([7]; 2.3 nM): 26%; percent inhibition of human Factor XI mRNA ([7]; 4.7 nM): 33%; percent inhibition of human Factor XI mRNA ([7]; 9.4 nM): 45%; percent inhibition of human Factor XI mRNA ([7]; 18.75 nM): 59%; percent inhibition of human Factor XI mRNA ([7]; 37.5 nM): 72%; percent inhibition of human Factor XI mRNA ([7]; 75 nM): 60%; percent inhibition of Factor XI mRNA, relative to untreated control cells ([8]; 9.375 nM): 13%; percent inhibition of Factor XI mRNA, relative to untreated control cells ([8]; 18.75 nM): 38%; percent inhibition of Factor XI mRNA, relative to untreated control cells ([8]; 37.5 nM): 59%; percent inhibition of Factor XI mRNA, relative to untreated control cells ([8]; 75 nM): 75% |

From patent US20120083522A1, “MODULATION OF INFLAMMATORY RESPONSES BY FACTOR XI” (Isis Pharmaceuitcals, inc., priority 2009, published 2012)
